17 compounds from patent US20250051327A1, “MALT-1 MODULATORS” (EXSCIENTIA AI LIMITED, priority 2020, published 2025) can be followed below.

Structures are written as SMILES.

The term IC50 denotes the point on the concentration scale where inhibition reaches its midpoint.

In experiment [1] the target is Recombinant human MALT-1 (amino acids 340-824) (Homo sapiens (Human), UniProt Q9UDY8). The experiment in a line: MALT-1 inhibition assay (fluorogenic substrate Ac-LRSR-Rh110-DP). Format: biochemical. The note with it: recombinant human MALT-1, substrate Ac-LRSR-Rh110-DP. On the procedure: MALT-1 paracaspase activity was measured using the fluorogenic substrate Ac-LRSR-Rh110-DP (purchased from Biosantan GmbH). […] The reaction was initiated by addition of substrate. Final concentrations of MALT-1 and substrate were 3 nM and 10 μM respectively. Reactions were incubated in the dark for 60 minutes at 25° C. […] Percent inhibition values were calculated from relative fluorescence units at different doses and fitted to a 4-parameter logistic curve to determine IC50 values (see Table 1).

Experiment [2] relates to IL-2 secretion by human effector memory T cells (TEM). The experiment in a line: Effector memory T cells IL-2 release assay. It counts as cell-based. The settings on record: T-cell; human CD4+ effector memory T cells, CD3/CD28 bead stimulation, 24 h; read-out: CD4TC IL2 IC50. The protocol: Effector Memory T Cells IL-2 Release Assay
Test compound-mediated inhibition of NFκB signalling in T cells was assessed by quantification of the IL-2 secretion by human effector memory T cells (TEM) upon treatment and stimulation. Human TEM cells were isolated from buffy coats of healthy donors obtained from the French blood bank. First, peripheral blood mononuclear cells (PBMC) were purified from buffy coats diluted 1:1 with DPBS (Gibco, cat #14190-094) by Pancoll (PAN BIOTECH, cat #P04-60500) density gradient centrifugation at 400×g for 20 minutes. TEM cells were further enriched by negative immuno-magnetic cell sorting using a human CD4+ Effector Memory T Cell Isolation Kit (Miltenyi, cat #130-094-125) according to the manufacturer's instructions. Aliquots of 3×10E6 purified TEM cells were kept frozen in Cryo-SFM medium (PromoCell, cat #C-29912) in gas phase nitrogen until used. Cell purity was verified by flow cytometry analysis of 200 000 PFA-fixed cells previously labelled with monoclonal antibodies anti-CD4-PerCP-Cy5.5 (BD Pharmigen, cat #332772), anti-CD8-V500 (BD Biosciences, cat #561617), anti-CD14-Pacific Blue (Biolegend, cat #325616), anti-CD45 RA-FITC (Biolegend, cat #304106) and anti-CCR7-APC (in CD4+ Effector Memory T Cell Isolation Kit, Miltenyi, cat #130-094-125).
TEM cells were resuspended in complete RPMI medium composed of: RPMI 1640 (Gibco, cat #31870-025), 10% heat inactivated fetal bovine serum (Sigma, cat #F7524), 2 mM GlutaMAX (Gibco, cat #35050-038), 1 mM sodium pyruvate 100× (Gibco, cat #11360-039), 1% MEM non-essential amino acids solution (Gibco, cat #11140-035) and 100 U/mL penicillin, 100 μg/mL streptomycin (Sigma-Aldrich, cat #11074440001). 5,000 cells per well were plated onto flat clear bottom 384 well plates (Corning, cat #3770). 5,000 Dynabeads Human T-Activator CD3/CD28 (Gibco, cat #11132D) were added to each well for cell stimulation. Finally, 10 doses of test compound, originally prepared in DMSO by serial semi-log step dilution, were also added to cells in triplicate wells. Final DMSO concentration in wells was 0.1% in a total volume of 100 μL complete medium. Plates were incubated for 24 h at 37° C. in 5% CO2 atmosphere. After incubation, cell suspensions were centrifuged at 400×g and culture supernatants were recovered and stored at −80° C. Cell viability was assessed by flow cytometry after staining the cells with Fixable Viability Dye eFluor 780 (Invitrogen, cat #65-0865-14). IL-2 levels were determined in cell supernatants using an HTRF human IL-2 detection kit (Cisbio, cat #62HIL02PEH). IL-2 data at the different compound doses were fitted to a 4-parameter logistic curve to determine IC50 values, corresponding to the compound concentration leading to 50% reduction of the maximal IL-2 levels observed in each experiment. Viability data were analysed similarly to exclude cytotoxicity as a cause of IL-2 decrease (see Table 1).

Chain of Recombinant human MALT-1 (amino acids 340-824) (Q9UDY8 340-824): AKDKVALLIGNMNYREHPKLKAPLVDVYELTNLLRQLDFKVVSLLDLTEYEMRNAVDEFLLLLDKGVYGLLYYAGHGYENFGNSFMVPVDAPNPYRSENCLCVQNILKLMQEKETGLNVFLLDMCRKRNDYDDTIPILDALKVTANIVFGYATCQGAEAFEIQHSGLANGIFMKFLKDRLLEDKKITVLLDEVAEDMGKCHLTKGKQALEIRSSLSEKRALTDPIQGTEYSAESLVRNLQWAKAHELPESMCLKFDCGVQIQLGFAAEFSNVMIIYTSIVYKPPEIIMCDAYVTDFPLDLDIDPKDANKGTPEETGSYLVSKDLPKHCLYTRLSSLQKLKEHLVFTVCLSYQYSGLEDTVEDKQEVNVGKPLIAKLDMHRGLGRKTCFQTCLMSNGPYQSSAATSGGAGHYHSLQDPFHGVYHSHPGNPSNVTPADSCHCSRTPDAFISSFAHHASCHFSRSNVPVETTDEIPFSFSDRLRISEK

With `CN(C(=O)[C@H]1CNC(=O)C1)[C@@H](c1ccc(N2CCCc3c2cnc2cc(Cl)nn32)cc1)C(F)(F)F` (stereo in doubt) [CPD0073564, (3rel-R)—N-[(1S)-1-(4-{4-chloro-2,3,7,10-tetraazatricyclo[7.4.0.0^2,6]trideca-1(9),3,5,7-tetraen-10-v}phenyl)-2,2,2-trifluoroethyl]-N-methyl-5-oxopyrrolidine-3-carboxamide], the IC50 in experiment [1] was 53 nM; in experiment [2], 250 nM.

As to `CN([C@@H](c1ccc(N2CCCc3c2cnc2cc(Cl)nn32)cc1)C(F)(F)F)S(C)(=O)=O` [CPD0021581, N-[(1S)-1-(4-{4-chloro-2,3,7,10-tetraazatricyclo[7.4.0.0^2,6]trideca-1(9),3,5,7-tetraen-10-yl}phenyl)-2,2,2-trifluoroethyl]-N-methylmethanesulfonamide], the IC50 in experiment [1] came out at 370 nM; in experiment [2], 538 nM.

As to `CN(C(=O)[C@H]1CC[S@@+]([O-])CC1)[C@@H](c1ccc(N2CCC(C)(C)c3c2cnc2cc(F)nn32)cc1)C(F)(F)F` (relative stereo) [CPD0072780, (1rel-s,4rel-s)-N-methyl-1-oxo-N-[(1S)-2,2,2-trifluoro-1-(4-{4-fluoro-13,13-dimethyl-2,3,7,10-tetraazatricyclo[7.4.0.0^2,6]trideca-1(9),3,5,7-tetraen-10-yl}phenyl)ethyl]-1λ^4-thiane-4-carboxamide], the IC50 was 75 nM in experiment [1] and 107 nM in experiment [2].

Consider `CN(C(=O)CN1CCOCC1)[C@@H](c1ccc(N2CCCc3c2cnc2cc(Cl)nn32)cc1)C(F)(F)F` [CPD0073243, N-[(1S)-1-(4-{4-chloro-2,3,7,10-tetraazatricyclo[7.4.0.0^2,6]trideca-1(9),3,5,7-tetraen-10-yl}phenyl)-2,2,2-trifluoroethyl]-N-methyl-2-(morpholin-4-yl)acetamide], for which the IC50 in experiment [1] amounted to 273 nM; in experiment [2] it was 315 nM.

For `CN(C(=O)[C@H]1CCN(C(=O)CC#N)C1)[C@@H](c1ccc(N2CCCc3c2cnc2cc(Cl)nn32)cc1)C(F)(F)F` [CPD0073191, (3rel-S)-N-[(1S)-1-[4-(4-chloro-2,3,7,10-tetrazatricyclo[7.4.0.0^2,6]trideca-1(9),3,5,7-tetraen-10-yl)phenyl]-2,2,2-trifluoro-ethyl]-1-(2-cyanoacetyl)-N-methyl-pyrrolidine-3-carboxamide], the IC50 in experiment [2] came to 148 nM.

Regarding `COC[C@]1(C)CCN(c2ccc([C@H](N(C)C(=O)C3CCS(=O)(=O)CC3)C(F)(F)F)cc2)c2cnc3cc(Cl)nn3c21` [CPD0073140, N-[(1S)-1-[4-[(13rel-R)-4-chloro-13-(methoxymethyl)-13-methyl-2,3,7,10-tetrazatricyclo[7.4.0.0^2,6]trideca-1(9),3,5,7-tetraen-10-yl]phenyl]-2,2,2-trifluoro-ethyl]-N-methyl-1,1-dioxo-1λ^6-thiane-4-carboxamide], the IC50 in experiment [2] is 192 nM.

As to `COc1ccc2ncc(Nc3ccc([C@H](N(C)C(=O)C4CCS(=O)(=O)CC4)C(F)(F)F)cc3)c(C3(OC)COC3)c2n1` [CPD0076414, N-methyl-1,1-dioxo-N-[(1S)-2,2,2-trifluoro-1-[4-[6-methoxy-4-(3-methoxyoxetan-3-yl)-1,5-naphthyridin-3-yllamino]phenyl]ethyl]thiane-4-carboxamide], in experiment [2], the IC50 is 267 nM.

Consider `COC[C@@]1(C)CCN(c2ccc([C@H](N(C)C(=O)C3CCS(=O)(=O)CC3)C(F)(F)F)cc2)c2cnc3cc(Cl)nn3c21` [CPD0073139, N-[(1S)-1-[4-[(13rel-S)-4-chloro-13-(methoxymethyl)-13-methyl-2,3,7,10-tetrazatricyclo[7.4.0.0^2,6]trideca-1(9),3,5,7-tetraen-10-yl]phenyl]-2,2,2-trifluoro-ethyl]-N-methyl-1,1-dioxo-1λ^6-thiane-4-carboxamide], for which the IC50 in experiment [2] stood at 65 nM.

With `CN(C(=O)[C@H]1CC[S@](=N)(=O)CC1)[C@@H](c1ccc(N2CC(C)(C)Cc3c2cnc2cc(Cl)nn32)cc1)C(F)(F)F` [CPD0073497, (1rel r,4rel r)-N-[(1S)-1-(4-{4-chloro-12,12-dimethyl-2,3,7,10-tetraazatricyclo[7.4.0.0^2,6]trideca-1(9),3,5,7-tetraen-10-yl}phenyl)-2,2,2-trifluoroethyl]-1-imino-N-methyl-1-oxo-1λ^6-thiane-4-carboxamide], the IC50 in experiment [2] came out at 183 nM.

`CN(C(=O)C1CCS(=O)(=O)CC1)[C@@H](c1ccc(N2CC3(CC3)Cc3c2cnc2cc(Cl)nn32)cc1)C(F)(F)F` [CPD0022148, N-[(1S)-1-(4-{4′-chloro-2′,3′,7′,10′-tetraazaspiro[cyclopropane-1,12′-tricyclo[7.4.0.0^2,6]tridecane]-1′(9′),3′,5′,7′-tetraen-10′-yl}phenyl)-2,2,2-trifluoroethyl]-N-methyl-1,1-dioxo-1λ^6-thiane-4-carboxamide]: in experiment [2], the IC50 worked out at 116 nM.

Consider `COc1ccc2ncc(Nc3ccc([C@H](N(C)C(=O)C4CCS(=O)(=O)CC4)C(F)(F)F)cc3)c([C@@H]3CCOC3)c2n1` [CPD0074040], for which the IC50 in experiment [2] came out at 33 nM.

On to `COc1ccc2ncc(Nc3ccc([C@H](N(C)C(=O)C4CCS(=O)(=O)CC4)C(F)(F)F)cc3)c([C@H]3CCOC3)c2n1` [CPD0074039], for which the IC50 in experiment [2] was 34 nM.

`COc1ccc2ncc(Nc3ccc([C@H](N(C)C(=O)[C@H]4CC[S@+]([O-])CC4)C(F)(F)F)cc3)c([C@H](C)OC)c2n1` (relative stereo) [CPD0072936, (1rel-r,4rel-r)-N-methyl-1-oxo-N-[(1S)-2,2,2-trifluoro-1-[4-({6-methoxy-4-[(1 rel-S)-1-methoxyethyl]-1,5-naphthyridin-3-yl}amino)phenyl]ethyl]-1λ^4-thiane-4-carboxamide]: the IC50 in experiment [2] is 17 nM.

In the case of `CN(C(=O)[C@@H]1CS(=O)(=O)CC12COC2)[C@@H](c1ccc(N2CCCc3c2cnc2cc(Cl)nn32)cc1)C(F)(F)F` [CPD0073974, (8rel-R)-N-[(1S)-1-(4-{4-chloro-2,3,7,10-tetraazatricyclo[7.4.0.0^2,6]trideca-1(9),3,5,7-tetraen-10-yl}phenyl)-2,2,2-trifluoroethyl]-N-methyl-6,6-dioxo-2-oxa-6λ^6-thiaspiro[3.4]octane-8-carboxamide], the IC50 in experiment [2] was found to be 340 nM.

With `COc1ccc2ncc(Nc3ccc([C@H](N(C)C(=O)C4CCS(=O)(=O)CC4)C(F)(F)F)cc3)c([C@@H](C)OC)c2n1` (relative stereo) [CPD0019171, N-methyl-1,1-dioxo-N-[(1S)-2,2,2-trifluoro-1-[4-({6-methoxy-4-[(1 rel R)-1-methoxyethyl]-1,5-naphthyridin-3-yl}amino)phenyl]ethyl]-1λ^6-thiane-4-carboxamide], in experiment [2], the IC50 is 110 nM.

`COc1ccc2ncc(Nc3ccc([C@H](N(C)C(=O)[C@H]4CNC(=O)C4)C(F)(F)F)cc3)c([C@H](C)OC)c2n1` (relative stereo) [CPD0074562, (3 rel R)-N-methyl-5-oxo-N-[(1S)-2,2,2-trifluoro-1-[4-[[6-methoxy-4-[(1 rel S)-1-methoxyethyl]-1,5-naphthyridin-3-yl]amino]phenyl]ethyl]pyrrolidine-3-carboxamide]: the IC50 in experiment [2] worked out at 68 nM.

On to `CN(C(=O)[C@H]1C[C@@H]([S@@+](C)(=N)[O-])C1)[C@@H](c1ccc(N2CCCc3c2cnc2cc(Cl)nn32)cc1)C(F)(F)F` [CPD0073223, (1R,3s)-N-[(1S)-1-(4-{4-chloro-2,3,7,10-tetraazatricyclo[7.4.0.0^2,6]trideca-1(9),3,5,7-tetraen-10-yl}phenyl)-2,2,2-trifluoroethyl]-3-[(S)-imino(methyl)oxo-λ^6-sulfanyl]-N-methylcyclobutane-1-carboxamide], for which the IC50 in experiment [2] worked out at 172 nM.
